Experimental data: PubChem BioAssay (NCI)
“And” between values parts separate entries of the source, which are not always exact repeats. Identical values can stand only once.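 Five compound concentrations were applied to cells in 96-well plates for 48 hours; endpoints were derived by simple linear interpolation of the resulting dose-response curve. Abbreviation: GI50, concentration required for 50% inhibition of growth. TGI: total growth inhibition.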

Legend:
Assay in all cases: inhibition of tumour cell growth, NCI panel, 48 h
[1] = system: HT29 colon
[2] = system: NCI-H226 lung
[3] = system: SK-MEL-2 melanoma
[4] = system: SNB-19 CNS
[5] = system: UACC-257 melanoma
[6] = system: OVCAR-8 ovarian
[7] = system: NCI-H460 lung
[8] = system: SF-539 CNS
[9] = system: 786-0 renal
[10] = system: T-47D breast

## O=C(O)Cc1ccccc1CCc1ccccc1Cl
[1]
  TGI: > 100 µM
[2]
  TGI: > 100 µM
[3]
  TGI: 91.7 µM
[4]
  TGI: > 100 µM
[5]
  TGI: > 100 µM
[6]
  TGI: > 100 µM
[7]
  TGI: > 100 µM
[8]
  TGI: > 100 µM
[9]
  TGI: > 100 µM

## CC1(C)[C@@H](OC(N)=O)C=C[C@]2(CO)[C@H]3CC[C@]4(C)[C@@H](c5ccc(=O)oc5)[C@@H](Cl)C[C@]4(O)C3=CC[C@@H]12
[1]
  GI50: 0.0024 µM
  TGI: 0.0154 µM
[2]
  GI50: 0.00448 µM
  TGI: 0.0168 µM
[3]
  GI50: 0.00402 µM
  TGI: 0.0294 µM
[4]
  GI50: 0.00887 µM and 0.0025 µM
  TGI: 0.0228 µM and 0.0461 µM
[5]
  GI50: 0.012 µM
  TGI: 0.029 µM
[6]
  GI50: 0.0028 µM
  TGI: 0.0151 µM
[7]
  GI50: < 0.0001 µM
  TGI: 0.00128 µM
[10]
  GI50: 0.00359 µM
  TGI: 0.0326 µM

## CCOC(=O)c1c(N)sc2c1C(C(=O)OCC)CCC2 (stereo not given)
[1]
  TGI: > 100 µM
[2]
  TGI: > 100 µM
[3]
  TGI: > 100 µM
[4]
  TGI: > 100 µM
[5]
  TGI: > 100 µM
[6]
  TGI: > 100 µM
[7]
  TGI: > 100 µM
[10]
  TGI: > 100 µM
[9]
  TGI: > 100 µM

## O=C1/C(=C/c2ccc(O)cc2)CCC1CNc1ccccc1 (stereo not given)
[1]
  TGI: 27.7 µM
[2]
  TGI: 37.9 µM
[4]
  TGI: 30.1 µM
[5]
  TGI: 30.6 µM
[6]
  TGI: 29.9 µM
[7]
  TGI: 50.9 µM
[8]
  TGI: 29.8 µM
[10]
  TGI: 55.2 µM
[9]
  TGI: 18.9 µM

## COc1cccc(NC(=O)CC(=O)N2N=C(C)C(N=Nc3ccc(C(=O)O)cc3)C2=O)c1 (stereo not given)
[1]
  TGI: > 100 µM
[3]
  TGI: > 100 µM
[4]
  TGI: > 100 µM
[5]
  TGI: > 100 µM
[6]
  TGI: > 100 µM
[8]
  TGI: > 100 µM
[10]
  TGI: > 100 µM
[9]
  TGI: > 100 µM

## C[C@]12CCC(=O)C=C1CC[C@@H]1[C@@H]2[C@@H](O)C[C@@]2(C)[C@H]1CC[C@]2(O)C(=O)COC(=O)CCC1CCCC1
[1]
  TGI: > 100 µM
[2]
  TGI: > 100 µM
[4]
  TGI: > 100 µM
[5]
  TGI: > 100 µM
[6]
  TGI: > 100 µM
[7]
  TGI: > 100 µM
[8]
  TGI: > 100 µM
[9]
  TGI: > 100 µM

## O=C(O)CCSC1=NCCN1
[1]
  TGI: > 100 µM
[2]
  TGI: > 100 µM
[3]
  TGI: > 100 µM
[4]
  TGI: > 100 µM
[5]
  TGI: > 100 µM
[6]
  TGI: > 100 µM
[7]
  TGI: > 100 µM
[10]
  TGI: > 100 µM
[9]
  TGI: > 100 µM

## COc1cccc(C23CCCC(C2)N(C)CC3OC(=O)c2ccccc2)c1OC (stereo not given)
[1]
  TGI: 43.3 µM
[3]
  TGI: > 100 µM
[4]
  TGI: > 100 µM
[5]
  TGI: > 100 µM
[6]
  TGI: 38.7 µM
[7]
  TGI: > 100 µM
[8]
  TGI: > 100 µM
[10]
  TGI: 81.2 µM
[9]
  TGI: > 100 µM

## CCCCCCCCCCCCCCCCCCNC(=O)OCC(CNS(=O)(=O)CCC[n+]1cccc2ccccc21)COC (stereo not given)
[2]
  TGI: 3.84 µM
[4]
  TGI: 6.13 µM
[5]
  TGI: 8.24 µM
[6]
  TGI: > 26.1 µM
[7]
  TGI: > 100 µM
[8]
  TGI: 5.63 µM
[10]
  TGI: > 100 µM
[9]
  TGI: > 43.5 µM

## CC1=CC[C@](C)(O)[C@@]2(C)CC[C@H]3C(=C(C)C)C(=O)C[C@]3(C)C[C@H]12
[1]
  TGI: > 50 µM
[2]
  TGI: > 50 µM
[3]
  TGI: > 50 µM
[4]
  TGI: > 50 µM
[5]
  TGI: > 50 µM
[6]
  TGI: > 50 µM
[8]
  TGI: > 50 µM
[10]
  TGI: > 50 µM
[9]
  TGI: > 50 µM

## Cn1ccc2c(c1=O)C(=O)OC2(C)C
[1]
  TGI: > 100 µM
[2]
  TGI: > 100 µM
[4]
  TGI: > 100 µM
[5]
  TGI: > 100 µM
[6]
  TGI: > 100 µM
[7]
  TGI: > 100 µM
[8]
  TGI: > 100 µM
[10]
  TGI: > 100 µM
[9]
  TGI: > 100 µM

## CCN(CC)/[N+]([O-])=N/O
[1]
  TGI: > 100 µM
[2]
  TGI: > 100 µM
[3]
  TGI: > 100 µM
[4]
  TGI: > 100 µM
[5]
  TGI: > 100 µM
[6]
  TGI: > 100 µM
[7]
  TGI: > 100 µM
[8]
  TGI: > 100 µM

## COc1cc(CNC(=S)CCCCCCCCCCC(C)C)ccc1O
[1]
  TGI: > 100 µM
[2]
  TGI: 86.3 µM
[4]
  TGI: > 100 µM
[5]
  TGI: > 100 µM
[6]
  TGI: > 100 µM
[7]
  TGI: > 100 µM
[8]
  TGI: > 100 µM
[10]
  TGI: 97.5 µM
[9]
  TGI: > 100 µM

## O=c1c2cc(Br)ccc2ncn1COCc1ccccc1
[1]
  TGI: > 1 µM
[2]
  TGI: > 1 µM
[3]
  TGI: > 100 µM
[4]
  TGI: > 100 µM
[5]
  TGI: > 100 µM
[6]
  TGI: > 1 µM
[8]
  TGI: > 100 µM
[9]
  TGI: > 100 µM

## O=c1c(O)cccn1C1OC(CO)C(O)C1O (stereo not given)
[1]
  TGI: > 100 µM
[2]
  TGI: > 100 µM
[3]
  TGI: > 100 µM
[4]
  TGI: > 100 µM
[5]
  TGI: > 100 µM
[6]
  TGI: > 100 µM
[7]
  TGI: > 100 µM
[9]
  TGI: > 100 µM

## COc1cc(S(=O)(=O)Nc2ccc(-c3csc(/N=C\c4ccccc4)n3)cc2)ccc1Cl
[1]
  TGI: > 100 µM
[2]
  TGI: > 100 µM
[3]
  TGI: 60.6 µM
[4]
  TGI: > 100 µM
[6]
  TGI: > 100 µM
[8]
  TGI: > 100 µM
[10]
  TGI: > 100 µM
[9]
  TGI: > 100 µM

## CCn1c(=O)c2c3ccc(OC(C)=O)cc3[nH]c2c2ccc(OC(C)=O)cc21
[1]
  TGI: > 100 µM
[2]
  TGI: > 100 µM
[4]
  TGI: > 100 µM
[5]
  TGI: > 100 µM
[6]
  TGI: > 100 µM
[7]
  TGI: > 100 µM
[8]
  TGI: > 100 µM
[10]
  TGI: 93.9 µM
[9]
  TGI: > 100 µM

## COC(=O)[C@@H]1C=C[C@H](NC(C)=O)C1
[1]
  TGI: > 100 µM
[2]
  TGI: > 100 µM
[3]
  TGI: > 100 µM
[4]
  TGI: > 100 µM
[5]
  TGI: > 100 µM
[6]
  TGI: > 100 µM
[7]
  TGI: > 100 µM
[10]
  TGI: > 100 µM

## O=c1oc2cccnc2n1CCCCN1CCN(c2ccccc2)CC1
[1]
  TGI: > 100 µM
[3]
  TGI: > 100 µM
[4]
  TGI: > 100 µM
[5]
  TGI: > 100 µM
[6]
  TGI: > 100 µM
[7]
  TGI: > 100 µM
[8]
  TGI: > 100 µM
[10]
  TGI: > 100 µM
[9]
  TGI: > 100 µM

## CCN(CCCl)c1cccc(NC(=O)c2ccc(C(=O)Nc3cccc(CN(C)C)c3)cc2)c1
[3]
  TGI: 0.0856 µM
[4]
  TGI: 0.887 µM
[5]
  TGI: 0.304 µM
[6]
  TGI: 1.35 µM
[7]
  TGI: 1.36 µM
[8]
  TGI: 0.611 µM
[10]
  TGI: 0.662 µM

## NNC(=O)Cn1ccnn1
[1]
  TGI: > 100 µM
[3]
  TGI: > 100 µM
[4]
  TGI: > 100 µM
[5]
  TGI: > 100 µM
[6]
  TGI: > 100 µM
[7]
  TGI: > 100 µM
[9]
  TGI: > 100 µM

## COc1cc2oc(=O)cc(C)c2c(OC)c1OC(C)=O
[1]
  TGI: > 100 µM
[2]
  TGI: > 100 µM
[3]
  TGI: > 100 µM
[4]
  TGI: > 100 µM
[5]
  TGI: > 100 µM
[6]
  TGI: > 100 µM
[9]
  TGI: > 100 µM

## COc1ccc(OC)c(C[P+](c2ccccc2)(c2ccccc2)c2ccccc2)c1
[1]
  TGI: 11.8 µM
[2]
  TGI: > 61.4 µM
[4]
  TGI: > 75 µM
[5]
  TGI: 14.4 µM
[6]
  TGI: > 65.3 µM
[7]
  TGI: > 100 µM
[8]
  TGI: 39.2 µM
[10]
  TGI: > 90 µM
[9]
  TGI: > 100 µM
